Laboratory results from ChEMBL document CHEMBL1201862, “PubChem BioAssay data set” (2004).
Active and inactive are the calls of the source.

Key:
Leucine aminopeptidase = biological target: T1, Leucine aminopeptidase (Plasmodium falciparum 3D7, UniProt Q8IL11); test: P. falciparum M17LAP inhibitors, primary screen, biochemical, fluorogenic H-Leu-NHMec substrate, 1536-well (AID 1619); assay type: functional
T1 sequence (Q8IL11 whole entry): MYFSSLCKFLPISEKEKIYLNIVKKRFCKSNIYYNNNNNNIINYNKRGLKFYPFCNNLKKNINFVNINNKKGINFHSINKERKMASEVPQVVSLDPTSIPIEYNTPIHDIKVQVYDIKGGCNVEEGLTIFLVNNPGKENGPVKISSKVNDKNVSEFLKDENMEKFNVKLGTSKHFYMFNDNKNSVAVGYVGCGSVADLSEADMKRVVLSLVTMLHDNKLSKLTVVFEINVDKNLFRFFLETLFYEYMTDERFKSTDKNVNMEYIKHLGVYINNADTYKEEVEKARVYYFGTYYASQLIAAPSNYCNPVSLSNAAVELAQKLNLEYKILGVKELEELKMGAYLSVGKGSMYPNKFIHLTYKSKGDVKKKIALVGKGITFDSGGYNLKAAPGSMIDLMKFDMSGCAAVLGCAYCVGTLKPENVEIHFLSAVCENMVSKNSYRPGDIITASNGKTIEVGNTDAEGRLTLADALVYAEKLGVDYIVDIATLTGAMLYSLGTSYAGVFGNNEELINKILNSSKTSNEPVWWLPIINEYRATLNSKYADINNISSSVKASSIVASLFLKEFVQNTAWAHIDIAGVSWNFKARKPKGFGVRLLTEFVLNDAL

[1] = M. tuberculosis H37Rv growth inhibitors, H37Rv strain (AID 1626); assay type: functional
[2] = biological target: T2, Oxysterols receptor LXR-beta (Homo sapiens, UniProt P55055); test: LXR agonists, Gal4 luciferase reporter, dose response, counter-screen for ssDAF-12 agonist project, cell-based, luminescence, HEK293, S. stercoralis campaign (AID 720737); assay type: functional; conditions: read-out: IC50 (the source's name)
T2 sequence (P55055 whole entry): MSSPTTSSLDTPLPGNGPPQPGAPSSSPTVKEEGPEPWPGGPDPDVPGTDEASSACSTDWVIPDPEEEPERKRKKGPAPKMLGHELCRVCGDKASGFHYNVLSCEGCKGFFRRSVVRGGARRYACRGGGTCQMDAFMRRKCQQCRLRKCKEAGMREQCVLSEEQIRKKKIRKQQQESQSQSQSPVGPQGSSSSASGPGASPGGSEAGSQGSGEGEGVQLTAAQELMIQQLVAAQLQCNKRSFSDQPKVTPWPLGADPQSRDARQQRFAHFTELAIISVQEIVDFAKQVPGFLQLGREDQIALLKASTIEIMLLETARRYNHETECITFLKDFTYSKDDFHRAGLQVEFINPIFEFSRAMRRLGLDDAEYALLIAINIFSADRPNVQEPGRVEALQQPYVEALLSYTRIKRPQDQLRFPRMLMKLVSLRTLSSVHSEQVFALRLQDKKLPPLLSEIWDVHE

[3] = Luminescence-based cell-based high throughput dose response assay to identify activators of the DAF-12 from the parasite S. stercoralis (ssDAF-12).; assay type: functional
[4] = biological target: T3, Adenosylmethionine-8-amino-7-oxononanoate aminotransferase (Mycobacterium tuberculosis, UniProt P9WQ81); test: Mycobacterium tuberculosis BioA enzyme inhibitor Measured in Biochemical System Using Plate Reader - 2163-02_Inhibitor_Dose_CherryPick_Activity.; assay type: functional, Mycobacterium tuberculosis UT205
T3 sequence (P9WQ81 whole entry): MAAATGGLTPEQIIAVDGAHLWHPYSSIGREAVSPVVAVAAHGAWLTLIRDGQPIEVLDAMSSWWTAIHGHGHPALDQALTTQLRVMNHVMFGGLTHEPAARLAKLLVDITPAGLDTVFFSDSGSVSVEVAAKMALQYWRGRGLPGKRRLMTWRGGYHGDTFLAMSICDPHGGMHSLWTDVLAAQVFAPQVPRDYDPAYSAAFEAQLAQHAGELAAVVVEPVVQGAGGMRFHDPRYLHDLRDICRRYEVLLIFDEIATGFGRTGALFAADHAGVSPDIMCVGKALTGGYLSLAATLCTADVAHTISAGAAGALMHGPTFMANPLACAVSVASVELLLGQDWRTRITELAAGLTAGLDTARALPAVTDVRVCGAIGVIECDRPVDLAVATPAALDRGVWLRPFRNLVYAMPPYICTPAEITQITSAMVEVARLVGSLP

[5] = MC4R antagonists, dose response, counter-screen for LGR2 antagonist project, cell-based, plate reader, cherry pick (AID 743444); assay type: functional;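 note: transfected HEK 293 cells stimulated with alpha-MSH peptide; potency of inhibitors of the alpha-MSH evoked signal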
[6] = HepG2 cell cytotoxicity, dose response, cytotoxicity control, plate reader, cherry-pick, antagonist series (AID 743416); assay type: functional, cell-based
[7] = A549 cell cytotoxicity, dose response, cytotoxicity control, plate reader, cherry-pick, antagonist series (AID 743412); assay type: functional, cell-based
[8] = LGR2 antagonists, dose response, cell-based, HEK293, CRE-luciferase reporter, cherry pick, set 2 (AID 743343); assay type: functional;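 note: transfected cells were stimulated with diluted bursicon conditioned medium after compound addition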
[9] = HEK293 cell cytotoxicity, dose response, cytotoxicity control, plate reader, cherry-picked samples (AID 743446); assay type: functional, cell-based
Streptococcus = test: Group A Streptococcus viability loss, dose response, counter-screen for streptokinase expression inhibitor project, luminescence, BacTiterGlo (AID 1915); assay type: functional, organism-based;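 note: potency for reduction of bacterial viability or growth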
[10] = system: Streptococcus sp. 'group A'; test: growth inhibition of control SK(-) GAS strain, dose response, counter-screen for streptokinase expression inhibitor project, luminescence, kanamycin, BacTiterGlo, confirmation (AID 1900); assay type: functional, organism-based
Streptokinase A = biological target: T4, Streptokinase A (Streptococcus pyogenes serotype M1, UniProt P10520); test: S. pyogenes streptokinase expression inhibitors, potency, dose response, plasminogen activation absorbance, OD405 (AID 1914); assay type: functional, Streptococcus pyogenes M1 GAS;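 note: secreted streptokinase activity via plasminogen activation per viability signal from cell pellet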
T4 sequence (P10520 whole entry): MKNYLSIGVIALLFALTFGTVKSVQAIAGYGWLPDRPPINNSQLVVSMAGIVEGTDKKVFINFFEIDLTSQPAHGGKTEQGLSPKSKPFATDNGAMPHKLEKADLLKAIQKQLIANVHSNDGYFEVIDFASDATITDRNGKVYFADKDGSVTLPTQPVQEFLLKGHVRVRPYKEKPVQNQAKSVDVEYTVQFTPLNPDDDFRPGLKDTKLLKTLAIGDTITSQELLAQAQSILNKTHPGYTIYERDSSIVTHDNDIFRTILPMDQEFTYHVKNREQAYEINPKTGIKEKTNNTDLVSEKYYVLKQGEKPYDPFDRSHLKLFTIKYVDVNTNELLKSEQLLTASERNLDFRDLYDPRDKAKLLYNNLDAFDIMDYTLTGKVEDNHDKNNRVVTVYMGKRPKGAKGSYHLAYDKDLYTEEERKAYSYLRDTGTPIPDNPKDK

[11] = NIH:OVCAR-3 ovarian cancer cell cytotoxicity, dose response, PAX8 inhibitor project, plate reader, dry powder samples (AID 743044); assay type: functional, cell-based
[12] = non-specific cell cytotoxicity, dose response, cytotoxicity control for PAX8 inhibitor project, plate reader, dry powder samples (AID 743021); assay type: functional, cell-based
[13] = cytotoxicity in OVCAR8 ovarian cancer cells, dose response, PAX8 project, cell-based, plate reader, dry powder samples (AID 743197); assay type: functional; conditions: OVCAR-8
Paired box protein Pax-8 = Paired box protein Pax-8 (Homo sapiens, UniProt Q06710); test: inhibitors of PAX8-driven TPO luciferase reporter, dose response, RMG-I cells, cherry-pick (AID 687027); assay type: functional, cell-based;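 note: luciferase reporter driven by Pax8 target thyroperoxidase promoter measured by SteadyGlo luminescence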
[14] = IGROV1 ovarian cancer cell cytotoxicity, dose response, PAX8 inhibitor project, plate reader, dry powder samples (AID 743043); assay type: functional, cell-based; conditions: IGROV-1

Chain of Paired box protein Pax-8 (Q06710 whole entry): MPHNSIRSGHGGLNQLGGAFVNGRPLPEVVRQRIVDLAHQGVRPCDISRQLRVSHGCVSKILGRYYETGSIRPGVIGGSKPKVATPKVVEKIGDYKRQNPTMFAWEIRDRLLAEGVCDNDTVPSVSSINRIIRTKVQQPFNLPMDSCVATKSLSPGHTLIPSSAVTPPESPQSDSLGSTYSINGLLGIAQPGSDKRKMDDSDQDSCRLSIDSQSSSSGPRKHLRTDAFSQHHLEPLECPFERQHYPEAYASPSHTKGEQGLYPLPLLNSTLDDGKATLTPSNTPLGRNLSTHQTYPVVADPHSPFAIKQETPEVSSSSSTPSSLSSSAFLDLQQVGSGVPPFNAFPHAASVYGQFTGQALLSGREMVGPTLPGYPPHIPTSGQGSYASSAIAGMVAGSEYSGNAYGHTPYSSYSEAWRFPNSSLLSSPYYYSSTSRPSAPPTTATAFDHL

With `CCOc1ccc(NC(=O)CSc2nc(C)cc(C)n2)cc1` the IC50 (Leucine aminopeptidase) was 4.3 µM (active).
For `CCOC(=O)c1ccc(NC(=O)CCNC(=O)c2ccc([N+](=O)[O-])cc2)cc1`, the IC50 [1] was > 100 µM (active).
With `CCOC(=O)/C(C#N)=C/c1cn(CCOc2ccccc2)c2ccccc12` the EC50 [2] was > 67.6 µM (inactive) and the IC50 [3] was > 67.6 µM (inactive).
For `Fc1ccc(-c2ccc3c(c2)C2CC3CCN2)cc1` (stereo unspecified), the AC50 [4] was 1.25 µM (active).
With `Oc1nc2ccccc2n1C1CCN(C(CCc2ccccc2)c2nnnn2C2CCCCC2)CC1` (stereo unspecified) the AC50 [5] was 14.1 µM (active), the AC50 [6] was 30.6 µM (active) and the AC50 [7] was 15.8 µM (active). For the same compound, the AC50 [8] was 20.3 µM (active) and the AC50 [9] was 12.8 µM (active).
With `COC(=O)c1cccc(NC(=O)c2ccc(S(=O)(=O)N(C)c3ccccc3OC)cc2)c1` the AC50 [5] was 7.98 µM (active), the AC50 [6] was 28.9 µM (active) and the AC50 [7] was 22.7 µM (active). The AC50 [8] was 6.56 µM (active) and the AC50 [9] was 35.8 µM (active).
For `Oc1c(Cl)cc(Cl)cc1/C=N\c1cc(C(F)(F)F)ccc1N1CCc2ccccc2C1`, the EC50 [2] was > 67.5 µM (inactive), the EC50 (Streptococcus) was 11.8 µM (active) and the EC50 [10] was 4.75 µM (active). For the same compound, the EC50 (Streptokinase A) was 47.7 µM (active) and the IC50 [3] was > 67.5 µM (inactive).
For `O=C(c1ccc2c(c1)OCO2)N1CC[C@@H]2[C@H](CO)Nc3ccc(-c4ccc(F)cc4)cc3[C@@H]21`, the AC50 [4] was 1.4 µM (active).
In the case of `COc1ccc(NC(=O)Nc2ccc3c(c2)C(=O)N([C@H](C)CO)C[C@@H](C)[C@H](CN(C)Cc2ccc(C(F)(F)F)cc2)OCCCC[C@H](C)O3)cc1`, the AC50 [11] is reported as 20.5 µM (active), the AC50 [12] is reported as 70 µM (active) and the AC50 [13] is reported as 33.1 µM (active). For the same compound, the AC50 (Paired box protein Pax-8) was 5.71 µM (active) and the AC50 [14] was 23 µM (active).
In the case of `OC[C@@H]1[C@H](c2ccc(-c3ccc(F)cc3)cc2)[C@@H]2CN(CCC(F)(F)F)CCCCN12`, the AC50 [11] is reported as 25.2 µM (active), the AC50 [13] is reported as 47.5 µM (active) and the AC50 (Paired box protein Pax-8) is reported as 34.9 µM (active). The AC50 [14] was 30 µM (active).
For `Cc1nn(-c2ccccc2)c(Cl)c1/C=N/O`, the IC50 [1] was > 100 µM (active).
